From US20100113550A1, “New Crystal Forms” (BIAL - PORTELA AND CA, S.A., priority 2006, published 2010)
Entries after “also recorded” stand apart in the source; their conditions may differ. Read-outs that look alike come from different tables or passages of the source.

Experiments:
Format in all cases: physicochemical
[1] = Approximate solubilities (solvent added until a solution forms); conditions: for solubility: read-out: Solubility (approximate)
Excerpt: Approximate solubilities of compound 1, Form A in aqueous mixtures containing high concentrations of organic solvents are given in Table 1. [table]

[2] = RH stability: storage at controlled relative humidity or drying, checked by XRPD and for deliquescence; conditions: high relative humidities, long periods of time
Excerpt: Form A samples were stored at lower relative humidities of approximately 9-11, 23 and 32% RH and analyzed by XRPD and Karl-Fischer titration analysis after four weeks (Tables 30 and 31). The samples appeared to be Form A by XRPD. […] Note that the water content in the samples at 23 and 32% RH was slightly higher compared to the initial batch of Form A.
Form X samples were stored at relative humidities of approximately 43, 75 and 90% RH and analyzed by XRPD and Karl-Fischer titration analysis after five weeks (Tables 34 and 35).

[3] = Interconversion studies of Forms A and C (slurries, XRPD); conditions: interconversion in ethanol and acetone:water 99:1
Method: A slurry of compound 1, Form A, was prepared in a given solvent and loaded on an orbit shaker at either ambient or elevated temperature for at least 1 day. The liquid phase of the slurry was drawn off with a pipette and filtered through a 0.2-μm filter. A slurry containing compound 1 forms A and C was prepared using the filtered liquid phase from the Form A slurry. The mixture was then loaded on an orbit shaker in a sealed vial at either ambient or elevated temperature for 1 or 7 days. The solids were isolated by vacuum filtration or by drawing the liquid phase off with a pipette and allowing the solids to air dry at ambient conditions prior to analysis. The resulting Forms were characterised by XRPD.

[4] = RH stability: storage at controlled relative humidity or drying, checked by XRPD and for deliquescence

## Cl.NCCc1c[nH]c(=S)n1[C@H]1COc2c(F)cc(F)cc2C1 [Form C, (R)-5-(2-Aminoethyl)-1-(6,8-difluorochroman-3-yl)-1,3-dihydroimidazole-2-thione hydrochloride]
[1]; 1,4-dioxane, organic solvent or mixture, 1,4-dioxane
  solubility: < 1000 µg/mL
[1]; 1,4-dioxane:water 9:1, organic solvent or mixture, 1,4-dioxane:water 9:1
  solubility: > 22000 µg/mL
[1]; 1,4-dioxane:water 99:1, hydrochloride
  Solubility (approximate): <22000 µg/mL
[1]; 2,2,2-trifluoroethanol, hydrochloride
  Solubility (approximate): 1700 µg/mL
[1]; THF:water 9:1, organic solvent or mixture, THF:water 9:1
  solubility: > 23000 µg/mL
[1]; THF:water 99:1, organic solvent or mixture, THF:water 99:1
  solubility: < 24000 µg/mL
[1]; acetone:water 90:10 (9:1)
  Solubility (approximate): >23000 µg/mL
[1]; acetone:water 99:1, hydrochloride
  Solubility (approximate): <24000 µg/mL
[1]; acetone, hydrochloride
  Solubility (approximate): <1000 µg/mL
[1]; acetonitrile, organic solvent or mixture, acetonitrile
  solubility: < 1000 µg/mL
[1]; acetonitrile:water 4:1, organic solvent or mixture, acetonitrile:water 4:1
  solubility: > 40000 µg/mL
[1]; acetonitrile:water 90:10 (9:1), hydrochloride
  Solubility (approximate): <25000 µg/mL
[1]; comparison between forms
  Solubility compared with the other forms (in words): lower compared to the solubilities of Form A
[1]; dichloromethane, organic solvent or mixture, dichloromethane
  solubility: < 1000 µg/mL
[1]; diethyl ether, organic solvent or mixture, diethyl ether
  solubility: < 1000 µg/mL
[1]; ethanol:water 90:10 (9:1), hydrochloride
  Solubility (approximate): <22000 µg/mL
[1]; ethanol, hydrochloride
  Solubility (approximate): 2000 µg/mL
[1]; ethyl acetate, organic solvent or mixture, ethyl acetate
  solubility: < 1000 µg/mL
[1]; hexafluoro isopropanol, organic solvent or mixture, hexafluoro isopropanol
  solubility: 1000 µg/mL
[1]; hexane, organic solvent or mixture, hexane
  solubility: < 1000 µg/mL
[1]; iso-propanol, hydrochloride
  Solubility (approximate): <1000 µg/mL
[1]; methanol, hydrochloride
  Solubility (approximate): 21000 µg/mL
[1]; methyl ethyl ketone, hydrochloride
  Solubility (approximate): <1000 µg/mL
[1]; n-propanol, organic solvent or mixture, n-propanol
  solubility: < 1000 µg/mL
[1]; organic solvents and aqueous mixtures, hydrochloride
  Solubility by kind of solvent (in words): poorly soluble in most organic solvents, except in methanol; also recorded: slightly soluble in ethanol, hexafluoroisopropanol, 2,2,2-trifluoroethanol, and some aqueous mixtures
[1]; tetrahydrofuran (THF), hydrochloride
  Solubility (approximate): <1000 µg/mL
[1]; toluene, organic solvent or mixture, toluene
  solubility: < 1000 µg/mL
[1]; water
  solubility: 23000 µg/mL
[2]
  Stability under high relative humidities: remain stable
[3]
  Relative thermodynamic stability of the forms: more thermodynamically stable than Form A
[4]
  Hygroscopicity: non-hygroscopic
[4]; 95% relative humidity, ~2 months
  RH stability, XRPD result: did not change
[4]; approximately 65% relative humidity, one week
  Deliquescence: did not deliquesce
[4]; approximately 90% relative humidity, 11 days
  Deliquescence: did not deliquesce
